Columns and labels:
male Swiss-Webster mice = settings: larger dose (20 μg/kg as printed), previously shown; cited from earlier work
rat = settings: after the initial insult; cited from earlier work
[1] = system: Human renal proximal tubular epithelial cells (RPTEC); test: Mild ATP depletion of cultured cells (in vitro ischemia) with antimycin A; type: cell-based; settings: 1 μm antimycin; for ATP level (partial ATP depletion): mean+/-SD from four experiments
Procedure: Human renal proximal tubular epithelial cells (RPTEC) were obtained from Clonetics (San Diego, Calif.). Cells were grown in Renal Epithelial Cell Basal Medium supplemented with REGM complex ([…] hydrocortisone, 10 pg/ml hEGF, 0.5 μg/ml epinephrine, 6.5 pg/ml triiodothyronine, 10 μg/ml transferrin, 5 μg/ml insulin, 1 μg/ml gentamicin sulfate, and 2% FBS), as recommended by the manufacturer.
We modified previously described protocols of in vitro ischemia by ATP depletion with inhibitors of oxidative phosphorylation (8, 9). On the second day post-confluence, RPTEC cells were incubated with 1 μm antimycin A (Sigma) for varying periods of time up to 6 h. […] ATP levels were monitored using a luciferase-based assay kit (Sigma), and expressed as a percentage of control values. Cells were harvested at various time points of ATP depletion, and analyzed for NGAL mRNA expression by RT-PCR and NGAL protein expression by Western analysis. The secretion of NGAL into the culture medium was also monitored.
In order to confirm the origin of NGAL from ischemic proximal tubule cells, we modified previously described protocols of in vitro ischemia by ATP depletion in cultured human proximal tubule cells (RPTEC). […] NGAL mRNA was just detectable in resting cells.

Row | Compound | Time to tubule cell necrosis and apoptosis, and impaired renal function (male Swiss-Webster mice) | Time at which KIM-1 is qualitatively detectable (rat) | ATP level (partial ATP depletion) ([1]; by 6 h) | Morphological consequences of mild ATP depletion ([1]; up to 6 h) | ATP level (partial ATP depletion) ([1]; within 1 h) | NGAL mRNA induction by RT-PCR ([1]; following partial ATP depletion)
1 | N.N.[Cl][Pt][Cl] [cisplatin] | 3 to 4 days | 24 to 48 h | – | – | – | –
2 | antimycin A | – | – | about 75±3 % of control | No morphological consequences | about 83±3 % of control | rapid and duration-dependent induction
